The results in this text go back to ChEMBL document CHEMBL5500399, “Design, Synthesis, and Biological Evaluation of 1,2,4-Oxadiazole Derivatives Containing an Aryl Carboxylic Acid Moiety as Potent Sarbecovirus Papain-like Protease Inhibitors” (J Med Chem, 2024).

Calls of active or inactive are those of the source. The calls are words filed in the database; no cut-off is given here.

Series [1] addresses T1, Replicase polyprotein 1ab (Severe acute respiratory syndrome coronavirus 2, UniProt P0DTD1). The series is described as follows: Inhibition of SARS-CoV2 PLpro using Z-RLRGG-AMC as substrate preincubated for 10 mins followed by substrate addition and measured after 20 sec shaking for 30 mins by time-resolved fluorescence assay.
Series [2] can be described thus: Metabolic stability in human liver microsomes assessed as half life at 1 uM preincubated for 5 mins followed by NADPH addition and measured after 30 mins by LC-MS/MS analysis. In kind it is ADME, Microsome. The conditions noted are these: time 35 min.
Series [3] in a line: Metabolic stability in CD-1 mouse liver microsomes assessed as half life at 1 uM preincubated for 5 mins followed by NADPH addition and measured after 30 mins by LC-MS/MS analysis. The conditions noted are these: time 35 min. In kind it is ADME, Microsome.
Series [4] in a line: Metabolic stability in human liver microsomes assessed as compound remaining at 1 uM preincubated for 5 mins followed by NADPH addition and measured after 30 mins by LC-MS/MS analysis. In kind it is ADME, Microsome. The following applies: read-out: Stability.
A short description of series [5]: Metabolic stability in CD-1 mouse liver microsomes assessed as compound remaining at 1 uM preincubated for 5 mins followed by NADPH addition and measured after 30 mins by LC-MS/MS analysis. In kind it is ADME, Microsome. The following applies: read-out: Stability.
Series [6] in a line: Half life in BALB/c mouse at 50 mg/kg, po measured upto 48 hrs by LC-MS/MS analysis. In kind it is ADME, organism-based. The conditions noted are these: in vivo.
Series [7] is described as follows: Tmax in BALB/c mouse at 50 mg/kg, po measured upto 48 hrs by LC-MS/MS analysis. In kind it is ADME, organism-based. The following applies: in vivo.
A short description of series [8]: Cmax in BALB/c mouse at 50 mg/kg, po measured upto 48 hrs by LC-MS/MS analysis. In kind it is ADME, organism-based. The following applies: in vivo.
Series [9] in a line: AUC(0 to t) in BALB/c mouse at 50 mg/kg, po measured upto 48 hrs by LC-MS/MS analysis. In kind it is ADME, organism-based. The conditions noted are these: in vivo.
The nature of series [10]: AUC(0 to infinity) in BALB/c mouse at 50 mg/kg, po measured upto 48 hrs by LC-MS/MS analysis. In kind it is ADME, organism-based. The following applies: in vivo.
Series [11] is described as follows: MRT(0 to t) in BALB/c mouse at 50 mg/kg, po measured upto 48 hrs by LC-MS/MS analysis. In kind it is ADME, organism-based. The conditions noted are these: in vivo.
Series [12] can be described thus: MRT(0 to infinity) in BALB/c mouse at 50 mg/kg, po measured upto 48 hrs by LC-MS/MS analysis. In kind it is ADME, organism-based. The following applies: in vivo.
A short description of series [13]: Oral bioavailability in BALB/c mouse at 50 mg/kg measured upto 48 hrs by LC-MS/MS analysis. In kind it is ADME, organism-based. The following applies: in vivo.
Series [14] is described as follows: Half life in BALB/c mouse at 5 mg/kg, iv measured upto 48 hrs by LC-MS/MS analysis. In kind it is ADME, organism-based. The conditions noted are these: in vivo.
Series [15] is described as follows: Tmax in BALB/c mouse at 5 mg/kg, iv measured upto 48 hrs by LC-MS/MS analysis. In kind it is ADME, organism-based. The following applies: in vivo.
The nature of series [16]: Cmax in BALB/c mouse at 5 mg/kg, iv measured upto 48 hrs by LC-MS/MS analysis. In kind it is ADME, organism-based. The conditions noted are these: in vivo.
The nature of series [17]: AUC(0 to t) in BALB/c mouse at 5 mg/kg, iv measured upto 48 hrs by LC-MS/MS analysis. In kind it is ADME, organism-based. The following applies: in vivo.
A short description of series [18]: AUC(0 to infinity) in BALB/c mouse at 5 mg/kg, iv measured upto 48 hrs by LC-MS/MS analysis. In kind it is ADME, organism-based. The conditions noted are these: in vivo.
A short description of series [19]: MRT(0 to t) in BALB/c mouse at 5 mg/kg, iv measured upto 48 hrs by LC-MS/MS analysis. In kind it is ADME, organism-based. The conditions noted are these: in vivo.
Series [20] is described as follows: MRT(0 to infinity) in BALB/c mouse at 5 mg/kg, iv measured upto 48 hrs by LC-MS/MS analysis. In kind it is ADME, organism-based. The following applies: in vivo.
Series [21] can be described thus: Clearance in BALB/c mouse at 5 mg/kg, iv measured upto 48 hrs by LC-MS/MS analysis. In kind it is ADME, organism-based. The conditions noted are these: in vivo.
The nature of series [22]: Cytotoxicity against african green monkey Vero E6 cells incubated for 48 hrs. The following applies: chlorocebus sabaeus. In kind it is toxicity, cell-based, Vero C1008.
Series [23] has as its target T1, Replicase polyprotein 1ab. Briefly: Binding affinity to SARS-CoV2 PLpro by biolayer interferometry analysis.
The target in series [24] is Replicase polyprotein 1ab (Severe acute respiratory syndrome coronavirus 2) (UniProt P0DTD1). Briefly: Inhibition of SARS-CoV2 PLpro cleavage activity using 2Ub-K48 as substrate incubated overnight by SYPRO Ruby staining based SDS-PAGE analysis.
Series [25] has the same target. The series is described as follows: Inhibition of RLRGG binding to SARS-CoV2 PLpro.
Series [26] concerns Severe acute respiratory syndrome-related coronavirus. The series is described as follows: Inhibition of SARS-CoV PLpro using Z-RLRGG-AMC as substrate preincubated for 10 mins followed by substrate addition and measured after 20 sec shaking for 30 mins by time-resolved fluorescence assay.
Series [27] has as its target Replicase polyprotein 1ab (Middle East respiratory syndrome-related coronavirus (isolate UnitedKingdom/H123990006/2012) (Betacoronavirus England 1) (Humancoronavirus EMC)) (UniProt K9N7C7). Briefly: Inhibition of MERS-CoV PLpro using Z-RLRGG-AMC as substrate preincubated for 10 mins followed by substrate addition and measured after 20 sec shaking for 30 mins by time-resolved fluorescence assay. The conditions noted are these: time 40.3 min.

In series [28] the target is Replicase polyprotein 1ab (Severe acute respiratory syndrome coronavirus 2) (UniProt P0DTD1). The series is described as follows: Binding affinity to SARS-CoV2 PLpro assessed as stabilization by measuring increase melting temperature by thermal shift assay.
Series [29] in a line: Metabolic stability in human hepatocytes assessed as half life at 1 uM measured upto 30 mins. In kind it is ADME, cell-based, Hepatocyte.
Series [30] in a line: Metabolic stability in mouse hepatocytes assessed as half life at 1 uM measured upto 30 mins. In kind it is ADME, cell-based, Hepatocyte.
Series [31] is described as follows: Metabolic stability in human hepatocytes assessed as intrinsic clearance per million cells at 1 uM measured upto 30 mins. In kind it is ADME, cell-based, Hepatocyte. The conditions noted are these: read-out: CLH.
A short description of series [32]: Metabolic stability in mouse hepatocytes assessed as intrinsic clearance per million cells at 1 uM measured upto 30 mins. In kind it is ADME, cell-based, Hepatocyte. The conditions noted are these: read-out: CLH.
The nature of series [33]: Metabolic stability in human hepatocytes assessed as compound remaining at 1 uM measured after 30 mins. In kind it is ADME, cell-based, Hepatocyte. The following applies: read-out: Stability.
Series [34] can be described thus: Metabolic stability in mouse hepatocytes assessed as compound remaining at 1 uM measured after 30 mins. The following applies: read-out: Stability. In kind it is ADME, cell-based, Hepatocyte.
A short description of series [35]: Metabolic stability in human liver microsomes assessed as half life. In kind it is ADME, Microsome.
Series [36] can be described thus: Metabolic stability in human liver microsomes assessed as intrinsic clearance. The following applies: read-out: CLH. In kind it is ADME, Microsome.

Consider `CC(c1nc(-c2ccc(-c3ccc(C(=O)O)s3)cc2)no1)c1cccc2ccccc12` (centres undefined), for which half-maximal inhibition in series [1] (IC50) was put at 1.8 µM. For the same compound, the half-life at 1 µM in series [2] and in series [3] was greater than 1.55 h in each case. The remaining at 0.5 h, 1 µM in [4] was determined as 82.1%; in [5], 101%. The half-life in [6] is 6.5 h; in series [14] it was 5.8 h. Further, the Tmax in series [7] stood at 0.88 h; in [15] it was 0.17 h. The Cmax in series [8] was 3670 ng/mL; in series [16] it was 14200 ng/mL. Besides, the AUC(0-t) at 48 h was found to be 17400 ng·h/mL in series [9] and 36300 ng·h/mL in [17]. Besides, the area under the curve AUC(0-inf) in series [10] stood at 17500 ng·h/mL; in series [18] it was 36300 ng·h/mL. In addition, the figures for the MRT last at 48 h in series [11] and in series [19] were 8.05 h and 5.04 h, respectively. Further, the mean residence time (MRT inf) in [12] amounted to 8.29 h; in [20], 5.12 h. The same compound yielded a bioavailability in series [13] of 4.8%. In [21], this compound showed a clearance of 2.35 mL/min/kg. This compound also returned a CC50 at 48 h in series [22] of 170 µM. The compound further returned a dissociation constant Kd in [23] of 13.6 µM. Also, the inhibition entry in series [24], in [25], in series [26] and in series [27] was “Active” each time. Also, the result in series [28] was Active.
With `Cc1ccc(N)cc1C(=O)N[C@H](C)c1cccc2ccccc12`, the half-life at 1 µM is 0.75 h in [29] and 7.6 min in series [30]. The hepatocyte CLint at 1 µM in [31] worked out at 15.4 µL/min/1e6 cells; in [32], 91.5 µL/min/1e6 cells. The results for the remaining at 0.5 h, 1 µM in series [33] and in series [34] were 63% and 6.4%, respectively. In [22], this compound came in with a CC50 at 48 h of 253 µM. Moreover, the half-life in [35] is 0.44 h. In addition, the CLint scaled in series [36] is 27 mL/min/kg.
`Cc1ccc(-c2noc(C(C)c3ccc(-c4ccccc4)c(F)c3)n2)cc1NCc1ccc(C(=O)O)s1` (racemic) displayed an IC50 in [1] of 1 µM. The half-life at 1 µM in [2] and in series [3] was greater than 1.55 h each time. Moreover, the remaining at 0.5 h, 1 µM was found to be 101% in [4] and 99.1% in [5]. Also, the half-life in series [6] was 2.53 h; in [14], 4.2 h. The time to peak (Tmax) in [7] amounted to 1.25 h; in series [15], 0.05 h. Also, the Cmax came out at 10200 ng/mL in [8] and 10600 ng/mL in series [16]. For the same compound, the area under the curve AUC(0-t) at 48 h turned out to be 24300 ng·h/mL in series [9] and 6210 ng·h/mL in series [17]. Also, the results for the AUC(0-inf) in series [10] and in series [18] were 24400 ng·h/mL and 6260 ng·h/mL, respectively. For the same compound, the MRT last at 48 h stood at 2.19 h in series [11] and 2.74 h in series [19]. Also, the MRT inf in [12] came to 2.72 h; in [20], 2.96 h. The same compound displayed a bioavailability in [13] of 39.1%. For the same compound, the clearance in series [21] is 13.5 mL/min/kg. The CC50 at 48 h in [22] was 124 µM. The same compound gave a Kd in [23] of 13.6 µM. The inhibition result in series [24], in [25], in [26] and in series [27] was “Active” throughout.
